One experiment deals with EGFR L858R/T790M (Homo sapiens (Human), UniProt P00533, L858R/T790M). The experiment in a line: TR-FRET assay for ERBB kinases. It counts as biochemical. The note with it: geometric mean if measured more than once. On the procedure:
(§1) TR-FRET Assay for ERBB Kinases
(§2) All compounds and PROTACs were serially diluted in three-fold increments using 100% DMSO, followed by an intermediate 10-fold dilution using Buffer A (50 mM HEPES, pH 7.5, 50 mM NaCl, 10 mM MgCl2, 1 mM DTT, and 0.1% Pluronic F-68). […] Next, 10 uL of protein kinase in Buffer A was added to each well of the assay plate and pre-incubated with compound for 10 minutes. Kinase reactions were then initiated by addition of 5 uL substrate mix containing 3 mM ATP and 30 uM fluorescein-labeled Poly-GluTyr (Thermo Fisher, #PV3610) in Buffer A and allowed to proceed for 10 minutes at room temperature. Reactions were quenched by addition of a 5 uL mixture containing 5 nM LanthaScreen® Tb-pY20 Antibody (Thermo Fisher, #PV3552) and 40 mM EDTA in Buffer A. Assay plates were then read using a Synergy2 (Biotek Instruments, Winooski, Vt.) via excitation thru a 340/20 nm bandpass filter and emission collected thru 490/10 nm (donor) and 520/25 nm (acceptor) bandpass filters.

In another experiment the target is EGFR L858R/T790M/C797S (Homo sapiens (Human), UniProt P00533, C797S/L858R/T790M). The experiment in a line: TR-FRET assay for ERBB kinases. It counts as biochemical. The note with it: geometric mean if measured more than once. As to the method: as §1, §2
On the technique in general: In TR-FRET formats the signal depends on donor and acceptor labels being close together.

In another experiment the target is EGFR WT (Homo sapiens (Human), UniProt P00533). The experiment in a line: TR-FRET assay for ERBB kinases. It counts as biochemical. The note with it: geometric mean if measured more than once. As to the method: as §1, §2
Chain of EGFR WT (P00533 25-1210): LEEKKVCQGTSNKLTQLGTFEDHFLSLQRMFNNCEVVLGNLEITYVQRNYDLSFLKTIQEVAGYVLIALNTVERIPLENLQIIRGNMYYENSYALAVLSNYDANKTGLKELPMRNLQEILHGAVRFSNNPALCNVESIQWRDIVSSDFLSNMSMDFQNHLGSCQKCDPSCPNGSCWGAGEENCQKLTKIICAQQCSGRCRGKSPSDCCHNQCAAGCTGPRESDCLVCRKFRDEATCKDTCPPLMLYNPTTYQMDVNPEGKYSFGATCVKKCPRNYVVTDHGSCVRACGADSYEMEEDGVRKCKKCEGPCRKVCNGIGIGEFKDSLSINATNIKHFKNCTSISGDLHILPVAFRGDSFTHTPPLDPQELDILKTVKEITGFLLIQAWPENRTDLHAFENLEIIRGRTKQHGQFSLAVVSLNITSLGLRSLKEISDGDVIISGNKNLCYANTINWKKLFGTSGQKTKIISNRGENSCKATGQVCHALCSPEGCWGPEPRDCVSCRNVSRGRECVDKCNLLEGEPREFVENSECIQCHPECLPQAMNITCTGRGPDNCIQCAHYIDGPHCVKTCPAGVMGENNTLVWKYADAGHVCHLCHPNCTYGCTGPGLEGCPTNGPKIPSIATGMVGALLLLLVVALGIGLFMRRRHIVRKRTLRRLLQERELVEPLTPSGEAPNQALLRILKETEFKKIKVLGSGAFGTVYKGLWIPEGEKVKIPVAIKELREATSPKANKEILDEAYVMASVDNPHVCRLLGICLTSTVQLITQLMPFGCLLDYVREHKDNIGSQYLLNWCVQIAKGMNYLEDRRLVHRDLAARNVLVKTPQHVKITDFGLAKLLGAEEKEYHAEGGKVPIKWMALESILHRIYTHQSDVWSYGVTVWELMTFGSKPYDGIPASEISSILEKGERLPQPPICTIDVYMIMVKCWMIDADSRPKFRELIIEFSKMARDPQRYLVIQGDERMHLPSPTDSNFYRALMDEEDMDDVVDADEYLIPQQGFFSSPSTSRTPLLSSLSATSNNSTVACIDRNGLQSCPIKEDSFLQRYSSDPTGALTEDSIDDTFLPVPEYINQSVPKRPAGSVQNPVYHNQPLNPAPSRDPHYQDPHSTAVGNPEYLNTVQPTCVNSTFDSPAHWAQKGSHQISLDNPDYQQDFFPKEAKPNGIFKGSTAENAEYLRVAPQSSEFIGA
In the next experiment the target is EGFR Exon20NPG (Homo sapiens (Human), UniProt P00533, INS770NPG). Kind of experiment: TR-FRET assay for ERBB kinases. It counts as biochemical. The note with it: geometric mean if measured more than once. As to the method: as §1
Chain of EGFR Exon20NPG (P00533 other isoform, or with tags, fused parts or gaps del 1-694/ins NPG behind 770 limits assumed): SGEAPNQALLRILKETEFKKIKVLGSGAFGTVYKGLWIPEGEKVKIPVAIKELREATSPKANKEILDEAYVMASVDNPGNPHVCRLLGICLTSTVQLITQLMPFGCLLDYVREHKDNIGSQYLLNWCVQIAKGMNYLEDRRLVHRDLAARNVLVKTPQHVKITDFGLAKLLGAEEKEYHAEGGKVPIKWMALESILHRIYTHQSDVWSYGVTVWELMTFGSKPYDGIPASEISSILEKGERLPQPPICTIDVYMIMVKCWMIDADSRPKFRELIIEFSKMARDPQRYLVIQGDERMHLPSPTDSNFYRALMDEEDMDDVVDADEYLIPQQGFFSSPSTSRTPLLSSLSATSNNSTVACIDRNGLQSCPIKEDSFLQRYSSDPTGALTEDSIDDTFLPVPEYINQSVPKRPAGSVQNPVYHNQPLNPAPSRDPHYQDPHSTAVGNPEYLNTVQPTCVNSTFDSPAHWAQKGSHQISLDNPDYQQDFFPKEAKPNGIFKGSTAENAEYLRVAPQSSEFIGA
All compounds and PROTACs were serially diluted in three-fold increments using 100% DMSO, followed by an intermediate 10-fold dilution using Buffer A (50 mM HEPES, pH 7.5, 50 mM NaCl, 10 mM MgCl2, 1 mM DTT, and 0.1% Pluronic F-68). Two microliters of serially diluted compound or PROTAC were then transferred to black 384-well Proxiplates (PerkinElmer, #6008260) using an Integra Viaflo96. Next, 10 uL of protein kinase in Buffer A was added to each well of the assay plate and pre-incubated with compound for 10 minutes. Kinase reactions were then initiated by addition of 5 uL substrate mix containing 3 mM ATP and 30 uM fluorescein-labeled Poly-GluTyr (Thermo Fisher, #PV3610) in Buffer A and allowed to proceed for 10 minutes at room temperature. Reactions were quenched by addition of a 5 uL mixture containing 5 nM LanthaScreen® Tb-pY20 Antibody (Thermo Fisher, #PV3552) and 40 mM EDTA in Buffer A. Assay plates were then read using a Synergy2 (Biotek Instruments, Winooski, Vt.) via excitation thru a 340/20 nm bandpass filter and emission collected thru 490/10 nm (donor) and 520/25 nm (acceptor) bandpass filters.

Experiment [1] addresses EGFR L858R/T790M double mutant (H1975) (Homo sapiens (Human), UniProt P00533, L858R/T790M). The experiment in a line: EGFR protein degradation assay (Western blot). The note with it: 72 hours, 300 nM to 10 nM. It counts as cell-based. On the procedure:
EGFR Protein Degradation assay
Cells expressing the appropriate form of EGFR were seeded in 6-well plates (300,000 cells per well) and allowed to adhere to the plate overnight. […] To harvest cells, media was removed and cells were washed once with ice-cold phosphate-buffered saline (PBS) prior to the addition of 400 μl lysis buffer (Cell Signaling Technology) supplemented with a protease inhibitor cocktail (Thermo Scientific). Cells were scraped from the plate and the cell lysate transferred to an Eppendorf tube and then clarified by a single spin at 10 000 rpm for 10 minutes. The protein concentration of each lysate was determined (BCA kit, Thermo Scientific) prior to the addition of loading buffer (Invitrogen) and reducing agent (Invitrogen). 10 μg protein of each lysate was loaded on an SDS/PAGE gel and run at 165V for 2 hours. Following transfer to a PVDF membrane (iBlot2, Thermo Fisher Scientific), the membrane was blocked in Tris-buffered saline containing 0.1% Tween-20 (TBS-T) and supplemented with 5% powdered milk for 1 hour. Membranes were then probed with EGFR and tubulin (loaded control) primary antibodies in TBS-T containing 3% bovine serum albumin (BSA) overnight at 4° C. Membranes were washed thrice with TBS-T before incubation with secondary antibody in TBS-T containing 3% bovine serum albumin (BSA) and incubated for 1 hour at room temperature. Following 3 further washes with TBS, membrane proteins of interest were detected by enzyme-linked chemiluminescence (ECL) using a Chemidoc (Bio-Rad).
Background: A western blot detects proteins with antibodies after separation by electrophoresis.

The structures appear in SMILES notation. Where only a bound is given, the exact number is not on record here.

Chain of EGFR L858R/T790M (P00533 25-1210 T790M/L858R): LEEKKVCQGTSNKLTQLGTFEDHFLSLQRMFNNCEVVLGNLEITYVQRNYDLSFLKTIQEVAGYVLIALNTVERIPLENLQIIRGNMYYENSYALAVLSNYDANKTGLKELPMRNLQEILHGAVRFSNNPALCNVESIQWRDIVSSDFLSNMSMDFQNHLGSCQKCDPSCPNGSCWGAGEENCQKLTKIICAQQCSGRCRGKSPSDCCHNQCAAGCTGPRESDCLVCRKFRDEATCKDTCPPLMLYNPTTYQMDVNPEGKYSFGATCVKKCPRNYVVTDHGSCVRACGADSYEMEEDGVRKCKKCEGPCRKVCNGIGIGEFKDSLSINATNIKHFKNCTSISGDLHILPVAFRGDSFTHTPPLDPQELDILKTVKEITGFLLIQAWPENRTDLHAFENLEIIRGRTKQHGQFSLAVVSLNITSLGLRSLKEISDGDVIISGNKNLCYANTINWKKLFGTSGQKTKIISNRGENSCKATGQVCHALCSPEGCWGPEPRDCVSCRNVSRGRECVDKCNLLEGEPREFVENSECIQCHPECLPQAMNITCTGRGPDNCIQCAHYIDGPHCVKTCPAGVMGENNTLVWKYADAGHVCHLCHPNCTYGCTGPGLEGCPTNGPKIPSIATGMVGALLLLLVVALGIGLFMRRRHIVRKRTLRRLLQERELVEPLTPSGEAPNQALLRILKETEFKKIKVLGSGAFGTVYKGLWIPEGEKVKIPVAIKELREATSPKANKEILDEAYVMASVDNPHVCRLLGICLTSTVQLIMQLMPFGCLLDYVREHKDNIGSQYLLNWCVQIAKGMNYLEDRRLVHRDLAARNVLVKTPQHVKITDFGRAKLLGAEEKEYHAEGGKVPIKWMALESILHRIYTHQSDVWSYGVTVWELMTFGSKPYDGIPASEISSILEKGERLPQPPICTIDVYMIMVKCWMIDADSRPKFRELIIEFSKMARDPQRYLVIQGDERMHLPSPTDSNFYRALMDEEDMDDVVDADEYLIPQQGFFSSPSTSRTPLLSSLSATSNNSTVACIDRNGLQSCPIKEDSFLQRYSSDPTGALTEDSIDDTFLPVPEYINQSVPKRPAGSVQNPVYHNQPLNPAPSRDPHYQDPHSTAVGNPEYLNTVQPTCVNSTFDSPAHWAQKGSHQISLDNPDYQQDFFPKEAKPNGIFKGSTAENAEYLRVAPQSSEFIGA
Chain of EGFR L858R/T790M double mutant (H1975) (P00533 25-1210 T790M/L858R): as above

As a reminder, the IC50 is the concentration at which inhibition is half-maximal. In the case of `COC1CCN(c2nccc(Nc3cc4c(cn3)nc(COCCCN3CCN(CCCOCC(=O)N[C@H](C(=O)N5C[C@H](O)C[C@H]5C(=O)N[C@@H](C)c5ccc(-c6scnc6C)cc5)C(C)(C)C)CC3)n4C(C)C)n2)CC1` [Example 85, (2S,4R)-4-hydroxy-1-((S)-2-(2-(3-(4-(3-((1-isopropyl-6-((2-(4-methoxypiperidin-1-yl)pyrimidin-4-yl)amino)-1H-imidazo[4,5-c]pyridin-2-yl)methoxy)propyl)piperazin-1-yl)propoxy)acetamido)-3,3-dimethylbutanoyl)-N—((S)-1-(4-(4-methylthiazol-5-yl)phenyl)ethyl)pyrrolidine-2-carboxamide], the IC50 was 16 µM at EGFR L858R/T790M, 3.9 µM at EGFR L858R/T790M/C797S, more than 30 µM at EGFR WT and more than 30 µM at EGFR Exon20NPG. Besides, in experiment [1], the “EGFR protein remaining, EGFR L858R/T790M double mutant” value (from here on “EGFR protein remaining”) is recorded as “C (>80% EGFR protein remaining after 72 hours of incubation with the test compound at a concentration of 300 nM)”.

On to `Cc1ncsc1-c1ccc([C@H](C)NC(=O)[C@H]2C[C@H](O)CN2C(=O)[C@@H](NC(=O)COCCOCCOc2ccc(-c3nccc(Nc4cc5c(cn4)nc(C)n5C(C)C)n3)cc2)C(C)(C)C)cc1` [Example 276, (2R,4S)-4-hydroxy-1-((S)-2-(2-(2-(2-(4-(4-((1-isopropyl-2-methyl-1H-imidazo[4,5-c]pyridin-6-yl)amino)pyrimidin-2-yl)phenoxy)ethoxy)ethoxy)acetamido)-3,3-dimethylbutanoyl)-N—((S)-1-(4-(4-methylthiazol-5-yl)phenyl)ethyl)pyrrolidine-2-carboxamide], for which the IC50 was 23 µM at EGFR L858R/T790M, 29 µM at EGFR L858R/T790M/C797S, 20 µM at EGFR WT and more than 30 µM on EGFR Exon20NPG. The “EGFR protein remaining” value in experiment [1] was “C (>80% EGFR protein remaining after 72 hours of incubation with the test compound at a concentration of 300 nM)”.

For the compound `Cc1ncsc1-c1ccc([C@H](C)NC(=O)[C@@H]2C[C@@H](O)CN2C(=O)[C@@H](NC(=O)COCCCOCCCN2CCC3(CC2)CCN(c2nccc(Nc4cc5c(cn4)nc(C)n5C(C)C)n2)CC3)C(C)(C)C)cc1` [Example 282, (2S,4R)-4-hydroxy-1-((S)-2-(2-(3-(3-(9-(4-((1-isopropyl-2-methyl-1H-imidazo[4,5-c]pyridin-6-yl)amino)pyrimidin-2-yl)-3,9-diazaspiro[5.5]undecan-3-yl)propoxy)propoxy)acetamido)-3,3-dimethylbutanoyl)-N—((S)-1-(4-(4-methylthiazol-5-yl)phenyl)ethyl)pyrrolidine-2-carboxamide], the IC50 on EGFR L858R/T790M is more than 30 µM; at EGFR L858R/T790M/C797S, 23 µM; at EGFR WT, 12 µM; on EGFR Exon20NPG it was more than 30 µM.

For `COC1CCN(c2nccc(Nc3cc4c(cn3)nc(-c3ccc(CN5CCN(CCOc6ccc7c(c6)C(=O)N(C6CCC(=O)NC6=O)C7=O)CC5)cc3)n4C(C)C)n2)CC1` (stereo not shown) [Example 286, 2-(2,6-dioxopiperidin-3-yl)-5-(2-(4-(4-(1-isopropyl-6-((2-(4-methoxypiperidin-1-yl)pyrimidin-4-yl)amino)-1H-imidazo[4,5-c]pyridin-2-yl)benzyl)piperazin-1-yl)ethoxy)isoindoline-1,3-dione], the results for the IC50 at EGFR L858R/T790M, on EGFR L858R/T790M/C797S and at EGFR WT were 0.48 µM, 0.17 µM and 7.3 µM, respectively.

As for `COC1(CCN2CCN(CCCOCCCOCC(=O)N[C@H](C(=O)N3C[C@H](O)C[C@H]3C(=O)N[C@@H](C)c3ccc(-c4scnc4C)cc3)C(C)(C)C)CC2)CCN(c2nccc(Nc3cc4c(cn3)nc(C)n4C(C)C)n2)CC1` [Example 292, (2S,4R)-4-hydroxy-1-((S)-2-(2-(3-(3-(4-(2-(1-(4-((1-isopropyl-2-methyl-1H-imidazo[4,5-c]pyridin-6-yl)amino)pyrimidin-2-yl)-4-methoxypiperidin-4-yl)ethyl)piperazin-1-yl)propoxy)propoxy)acetamido)-3,3-dimethylbutanoyl)-N—((S)-1-(4-(4-methylthiazol-5-yl)phenyl)ethyl)pyrrolidine-2-carboxamide], the IC50 amounted to 19 µM at EGFR L858R/T790M, 11 µM at EGFR L858R/T790M/C797S and 39 µM on EGFR WT.

As to `COC1CCN(c2nccc(Nc3cc4c(cn3)nc(COCCN3CCN(CCOCC(=O)N[C@H](C(=O)N5C[C@H](O)C[C@H]5C(=O)N[C@@H](C)c5ccc(-c6scnc6C)cc5)C(C)(C)C)CC3)n4C(C)C)n2)CC1` [compound 86], the IC50 is 12 µM at EGFR L858R/T790M, 2.4 µM at EGFR L858R/T790M/C797S, more than 30 µM at EGFR WT and 24 µM at EGFR Exon20NPG. The “EGFR protein remaining” value in experiment [1] is “C (>80% EGFR protein remaining after 72 hours of incubation with the test compound at a concentration of 300 nM)”.

As for `Cc1ncsc1-c1ccc([C@H](C)NC(=O)[C@H]2C[C@H](O)CN2C(=O)[C@@H](NC(=O)COCCOCCOCCOc2ccc(-c3nccc(Nc4cc5c(cn4)nc(C)n5C(C)C)n3)cc2)C(C)(C)C)cc1` [compound 278], the IC50 is more than 30 µM on EGFR L858R/T790M, more than 30 µM on EGFR L858R/T790M/C797S, 30 µM at EGFR WT and more than 30 µM on EGFR Exon20NPG.

With `Cc1ncsc1-c1ccc([C@H](C)NC(=O)[C@H]2C[C@H](O)CN2C(=O)[C@@H](NC(=O)COCCOCCOCCOCCOc2ccc(-c3nccc(Nc4cc5c(cn4)nc(C)n5C(C)C)n3)cc2)C(C)(C)C)cc1` [compound 279], the IC50 is 29 µM at EGFR L858R/T790M, more than 30 µM at EGFR L858R/T790M/C797S, 16 µM at EGFR WT and more than 30 µM at EGFR Exon20NPG.

As to `Cc1ncsc1-c1ccc(CNC(=O)[C@@H]2C[C@@H](O)CN2C(=O)C(C(C)C)N2Cc3ccccc3C2=O)c(OCCOCCOCCOCCOc2ccc(-c3nccc(Nc4cc5c(cn4)nc(C)n5C(C)C)n3)cc2)c1` (stereo partly shown) [compound 281], the IC50 on EGFR L858R/T790M is more than 30 µM; at EGFR L858R/T790M/C797S, 15 µM; at EGFR WT it was 12 µM; on EGFR Exon20NPG, more than 30 µM.

Regarding `Cc1ncsc1-c1ccc([C@H](C)NC(=O)[C@H]2C[C@H](O)CN2C(=O)[C@@H](NC(=O)COCCCOCCCN2CCOC3(CCN(c4nccc(Nc5cc6c(cn5)nc(C)n6C(C)C)n4)CC3)C2)C(C)(C)C)cc1` [compound 285], the values for the IC50 at EGFR L858R/T790M, at EGFR L858R/T790M/C797S and at EGFR WT were 35 µM, 17 µM and 26 µM, respectively.

Consider `COC1CCN(c2nccc(Nc3cc4c(cn3)nc(COCCN3CCN(c5ccc6c(c5)C(=O)N(C5CCC(=O)NC5=O)C6=O)CC3)n4C(C)(C)C)n2)CC1` (stereo not shown) [compound 287], for which the IC50 amounted to 0.074 µM on EGFR L858R/T790M, 0.016 µM on EGFR L858R/T790M/C797S and 6.7 µM on EGFR WT.

In the case of `COC1CCN(c2nccc(Nc3cc4[nH]c(COCCN5CCN(c6ccc7c(c6)C(=O)N(C6CCC(=O)NC6=O)C7=O)CC5)nc4cn3)n2)CC1` (stereo not shown) [compound 288], the values for the IC50 on EGFR L858R/T790M, on EGFR L858R/T790M/C797S and on EGFR WT were 6.9 µM, 2 µM and 5.9 µM, respectively.

Take `O=C1CCC(N2C(=O)c3ccc(N4CCN(CC5CCN(CC#Cc6cccc7c6C(=O)N(C(C(=O)Nc6nccs6)c6cc(F)ccc6O)C7)CC5)CC4)cc3C2=O)C(=O)N1` (stereo not shown) [compound 293]: the IC50 came to 4.2 µM at EGFR L858R/T790M, 0.64 µM on EGFR L858R/T790M/C797S and 1.7 µM on EGFR WT.

For the origin of these results see patent US10994015B2, “EGFR proteolysis targeting chimeric molecules and associated methods of use” (Arvinas Operations, Inc., priority 2016, dated 2021).
